From patent US20250145637A1, “SULFONAMIDE DERIVATIVE, PREPARATION METHOD THEREFOR AND MEDICAL USE THEREOF” (Jiangsu Hengrui Pharmaceuticals Co. Ltd., priority 2021, published 2025)

Legend:
[1] = tested on: ER+ breast cancer; conditions: both in vitro and in vivo; cited from earlier work
[2] = tested on: ERα expression; conditions: ER+ breast cancer cells highly expressing KAT6A; cited from earlier work
[3] = molecular target: human KAT6A (Homo sapiens (Human), UniProt Q92794); experiment: KAT6 enzyme activity assay (AlphaScreen method), KAT6A; type: biochemical; conditions: inhibition of the enzyme human KAT6A
Sequence of human KAT6A (Q92794 whole entry): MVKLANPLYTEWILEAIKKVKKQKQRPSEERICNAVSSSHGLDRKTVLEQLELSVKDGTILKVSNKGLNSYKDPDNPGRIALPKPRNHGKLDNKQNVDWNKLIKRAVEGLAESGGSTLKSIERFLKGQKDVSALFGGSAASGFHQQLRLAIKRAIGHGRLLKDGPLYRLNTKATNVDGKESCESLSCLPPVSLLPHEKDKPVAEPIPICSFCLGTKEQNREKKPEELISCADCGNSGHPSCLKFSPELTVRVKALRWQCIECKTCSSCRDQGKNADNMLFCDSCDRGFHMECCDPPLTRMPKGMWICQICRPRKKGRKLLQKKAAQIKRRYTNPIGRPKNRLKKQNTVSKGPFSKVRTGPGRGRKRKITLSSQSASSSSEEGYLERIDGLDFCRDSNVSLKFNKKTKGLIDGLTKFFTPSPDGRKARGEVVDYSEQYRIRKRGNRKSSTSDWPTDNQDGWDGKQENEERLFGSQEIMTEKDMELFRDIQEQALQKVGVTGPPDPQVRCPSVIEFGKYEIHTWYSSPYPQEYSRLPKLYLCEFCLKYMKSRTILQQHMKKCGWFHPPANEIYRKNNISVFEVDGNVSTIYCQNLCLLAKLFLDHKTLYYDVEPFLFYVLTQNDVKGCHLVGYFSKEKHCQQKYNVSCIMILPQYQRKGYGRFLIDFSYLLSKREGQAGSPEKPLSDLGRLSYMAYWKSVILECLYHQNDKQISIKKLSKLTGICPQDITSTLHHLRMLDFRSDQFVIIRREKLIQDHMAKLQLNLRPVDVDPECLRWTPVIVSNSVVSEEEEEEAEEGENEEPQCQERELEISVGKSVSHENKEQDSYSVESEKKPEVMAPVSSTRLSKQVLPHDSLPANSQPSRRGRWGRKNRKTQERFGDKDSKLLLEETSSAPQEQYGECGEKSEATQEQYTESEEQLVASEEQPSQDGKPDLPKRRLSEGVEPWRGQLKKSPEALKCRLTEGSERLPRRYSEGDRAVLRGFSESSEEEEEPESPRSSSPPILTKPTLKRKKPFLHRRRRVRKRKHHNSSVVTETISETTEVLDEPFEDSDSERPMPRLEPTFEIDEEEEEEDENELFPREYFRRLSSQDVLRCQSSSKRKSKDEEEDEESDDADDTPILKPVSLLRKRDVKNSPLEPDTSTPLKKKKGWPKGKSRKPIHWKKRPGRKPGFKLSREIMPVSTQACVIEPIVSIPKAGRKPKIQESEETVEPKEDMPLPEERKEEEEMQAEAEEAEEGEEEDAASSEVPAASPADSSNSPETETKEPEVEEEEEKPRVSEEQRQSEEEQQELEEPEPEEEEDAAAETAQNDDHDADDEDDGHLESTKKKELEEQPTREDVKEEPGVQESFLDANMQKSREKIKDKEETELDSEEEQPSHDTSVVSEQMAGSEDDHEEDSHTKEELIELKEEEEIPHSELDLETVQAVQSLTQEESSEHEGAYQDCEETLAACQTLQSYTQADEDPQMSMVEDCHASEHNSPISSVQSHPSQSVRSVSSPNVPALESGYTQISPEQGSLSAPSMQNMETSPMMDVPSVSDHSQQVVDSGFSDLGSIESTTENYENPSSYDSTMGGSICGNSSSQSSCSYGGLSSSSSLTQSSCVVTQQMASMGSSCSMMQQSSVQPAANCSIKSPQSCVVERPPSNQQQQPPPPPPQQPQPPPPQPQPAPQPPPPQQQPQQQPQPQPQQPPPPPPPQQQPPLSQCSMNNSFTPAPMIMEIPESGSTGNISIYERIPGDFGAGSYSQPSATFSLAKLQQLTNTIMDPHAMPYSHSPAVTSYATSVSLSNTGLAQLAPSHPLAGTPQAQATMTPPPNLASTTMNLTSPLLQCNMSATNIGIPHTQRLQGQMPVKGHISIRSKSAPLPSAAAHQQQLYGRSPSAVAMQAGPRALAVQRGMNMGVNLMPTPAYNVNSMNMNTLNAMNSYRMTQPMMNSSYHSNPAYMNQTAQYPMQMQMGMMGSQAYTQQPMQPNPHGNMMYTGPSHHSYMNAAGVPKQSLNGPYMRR
Text: Test Example 1: KAT6 Enzyme Activity Assay (AlphaScreen Method)
I. Reagents and instrument • 1. KAT6A (customized by Chempartner) • 2. Ovalbumin (Sigma-Aldrich, A5378-5G) • 3. 2 M Tris-HCl solution, pH 7.8, sterile (Sangon, B548140-0500) • 4. 5 M NaCl solution (Sangon, B548121-0100) • 5. EDTA (0.5 M), pH 8.0, RNase-free (Thermofisher, AM9260G) • 6. Tween-20 (Sangon, A100777-0500) • 7. DTT, 1 M (Invitrogen, P2325) • 8. Acetyl coenzyme A (Ac-CoA, CAYMAN, Cat. No. 16160) • 9. Recombinant histone H3.1 biotinylated (human) (Active Motif 31696) • 10. 384-well plate, light gray (Perkin Elmer, Cat. No. 6005350) • 11. Anacardic acid (MCE, Cat. No. HY—N2020) • 12. AlphaScreen streptavidin donor beads, 5 mg (PerkinElmer, 6760002) • 13. AlphaScreen protein A acceptor beads, 5 mg (PerkinElmer, 6760137M) • 14. Acetylated-lysine antibody #9441 (CST 9441S) • 15. PHERA star microplate reader (BMG labtech) • II. Experimental method
a. 1× assay buffer: 100 mM Tris-HCl, pH 7.8; 15 mM NaCl; 1 mM EDTA; 0.01% tween-20; 1 mM DTT; 0.01% m/v ovalbumin.
b. KAT enzyme solution: 1.25 nM (final concentration), prepared in 1× assay buffer.
c. Mixed substrate of Ac-CoA and H3: a mixed substrate of 1000 nM (final concentration) Ac-CoA and 55 nM (final concentration) H3, prepared in 1× assay buffer.
d. Compounds: initial concentration of 100 μM, 3-fold dilution, 10 gradient concentrations. All compound concentrations were diluted 83-fold with 1× assay buffer for later use.
e. Assay reagent: 8 ng/μL (final concentration) AlphaScreen protein A acceptor beads, 8 ng/μL AlphaScreen streptavidin donor beads, 1:1500 diluted acetylated-lysine antibody, and 100 μM anacardic acid; prepared in 1× assay buffer.
2. Experimental Procedure
a. The prepared enzyme solution was added to a 384-well plate at 3 μL/well, and 3 μL of 1× assay buffer was added to each well in columns 23 and 24 (Min).
b. 3 μL of compound solution was added to each well, and 3 μL of buffer was added to each Min well; 3 μL of DMSO solution was added to each well in columns 1 and 2 (Max) as controls. The plate was centrifuged, shaken for 2 min, and incubated at room temperature for 15 min.
c. The mixed substrate of Ac-CoA and H3 was added at 6 μL/well, and the plate was centrifuged, shaken for 2 min, and incubated at room temperature for 20 min.
d. The assay reagent was added at 6 μL/well, and the plate was centrifuged, shaken for 2 min, and incubated in the dark at room temperature for 120 min.
e. Plate reading was performed on the microplate reader, and AlphaScreen counts were recorded.
f. Plotting was performed using the Graphpad software, and the IC50 values of the compounds were calculated.

[4] = tested on: ZR-75-1; experiment: ZR-75-1 proliferation assay (CellTiter-Glo, day 14); type: cell-based; conditions: Homo sapiens, 336 h, CTG assay day 14
Text: Test Example 4: ZR-75-1 Proliferation Assay
I. Reagents and Instruments
• 1. ZR-75-1 (ATCC CRL1500) • 2. 1640 medium (Gibco, 22400-089) • 3. 0.25% trypsin-EDTA (1×) (Gibco, 25200-072) • 4. Penicillin-streptomycin (Gibco, 15140-122) • 5. DPBS (1×) (Gibco, 14190-144) • 6. FBS (Gibco, 10091148) • 7. Assay plate, 96-well, black with clear bottom (Corning, 3603) • 8. 96-well non-treated round-bottom plate (JET BIOFIL, TCP-002-096) • 9. CellTiter-Glo buffer (Promega, G756B) • 10. CellTiter-Glo substrate (Promega, G755B) • 11. Automatic cell counter (Countstar, IC1000) • 12. Thermostatic incubator (Thermo, 1160) • 13. PHERAstar FS (BMG labtech, PHERAstar FS)
a. The state of cells was observed under a microscope to make sure that the cell confluence was about 90%.
b. The cell supernatant was discarded. The cells were rinsed with DPBS once, and the DPBS was removed. The cells were digested with a proper amount of trypsin and left to stand at 37° C. for 5 min.
c. The digestion was stopped with an equal volume of 1640 medium containing 10% FBS, and the cell suspension was collected and centrifuged at 300 g for 3 min. The cells were suspended in a proper amount of fresh medium.
d. The resulting cell suspension was collected and cell counting was performed.
e. The cell suspension was diluted to 5×10^4/mL, 50 μL/well with 1640 medium containing 10% FBS. Each well contained 2500 ZR-75-1 cells.
f. The cell culture plates were incubated overnight in a 37° C., 5% carbon dioxide incubator.
2. Compound Addition (Day 1)
a. Each compound was serially diluted in DMSO to 9 concentration points (initial concentration of 100 μM, 3-fold dilution; the highest concentration of each compound may be adjusted depending on its IC50). For example, in a 96-well non-treated round-bottom plate, 3 μL of compound was serially diluted in 6 μL of DMSO.
b. Each concentration point of each compound was diluted 500-fold in the corresponding volume of 1640 medium.
c. 50 μL of diluted compound solution was added to the cell supernatant (50 μL/well) in each cell plate.
d. After the addition, the cell plates were incubated in a 37° C., 5% carbon dioxide incubator.
3. The Cells were Re-Digested and Plated, and the Compounds were Added (Day 7).
a. Six days after the addition, the compound-containing medium was discarded. Then the cells were rinsed with DPBS (150 μL/well), and the DPBS was immediately pipetted off.
b. The cells were digested with 50 μL of trypsin and left to stand at 37° C. for 3 min, and then the digestion was stopped with 1640 medium containing 10% FBS (150 μL/well).
c. The cells were well mixed using a pipette and re-plated at a ratio of 1:8; that is, 25 μL of cell suspension was pipetted into a new 96-well plate (25 μL of 1640 medium containing 10% FBS had been added to the new plate in advance).
d. Compound solution preparation and addition (50 μL/well) were performed according to steps a to c in 2.
e. After the addition, the cell plates were incubated in a 37° C., 5% carbon dioxide incubator.
a. CellTiter-Glo buffer and lyophilized CellTiter-Glo substrate were equilibrated to room temperature before use and were well mixed to prepare a 100-mL CellTiter-Glo reagent (or a prepared CellTiter-Glo reagent was removed from a −20° C. freezer and equilibrated to room temperature).
b. The plates to be tested were removed from the incubator and equilibrated to room temperature, and the CellTiter-Glo reagent was added at 50 μL/well.
c. The plates were shaken for 2 min so that the cells were completely lysed.
d. After the plates were left to stand at room temperature for 28 min and signals were stable, the plates were tested on PHERAstar FS.

[5] = Pharmacokinetic evaluation in SD rats; type: in vivo; conditions: both sexes, rat, plasma, po, i.g., 2.0 mg/kg
Description: Test Example 5: Pharmacokinetic Evaluation
SD rats were used as test animals. After intragastric (i.g.) administration of the compounds of the present disclosure to SD rats, the plasma concentrations at different time points were measured by the LC/MS/MS method. The pharmacokinetic behavior of the compounds of the present disclosure in SD rats was studied, and their pharmacokinetic profiles were evaluated.
Compound 2, compound 7, compound 21, and compound 23.
16 SD rats, of which half were male and half female, were evenly divided into 4 groups. The rats were provided by Vital River Laboratory Animal Technology Co., Ltd. The rats were fasted overnight and intragastrically administered the compounds.
2.3. Compound Solution Preparation
A certain amount of test compound was weighed out and dissolved in 5% DMSO+5% tween 80+90% normal saline to prepare a 0.2 mg/mL colorless clear solution.
The dose administered was 2.0 mg/kg, and the volume was 10.0 mL/kg.
0.1 mL blood samples were collected from the orbit before the administration and 0.25 h, 0.5 h, 1.0 h, 2.0 h, 4.0 h, 6.0 h, 8.0 h, 11.0 h and 24.0 h post-dose. The blood samples were placed into EDTA-K2 anticoagulation tubes and centrifuged at 10,000 rpm for 1 min (4° C.), and plasma was separated within 1 h and stored at −20° C. before analysis. The process from the blood collection to the centrifugation was performed in an ice bath. Access to food was given 2 h post-dose.
Measurement of plasma concentrations in SD rats after compounds were administered in different concentrations: 25 μL samples of the SD rat plasma collected at various time points post-dose were taken, and to each of the samples was added 25 μL of camptothecin (an internal standard for compound 2, 100 ng/mL) or 50 μL of tolbutamide (an internal standard for compound 7, 100 ng/mL) or 50 μL of verapamil (an internal standard for compounds 21 and 23, 100 ng/mL). Protein was precipitated with 200 μL of acetonitrile, and after 5 min of vortexing, the mixtures were centrifuged at 3700 rpm for 10 min. 120 µL of supernatant was taken and vortexed with 30 μL of water for 5 min, and a 5 μL sample was taken for LC/MS/MS analysis.

IC50 [3] [nM]	Vd/F ([5]; read-out: Apparent distribution volume Vz/F) [L/kg]	AUC(0-t) ([5]; read-out: Area under curve AUC0-t) [ng·h/mL]	CL/F ([5]; read-out: Clearance rate CL/F) [mL/min/kg]	half-life ([5]; read-out: Half-life T½ (converted)) [h]	Cmax ([5]; read-out: Plasma concentration Cmax) [ng/mL]	SMILES	anti-tumor activity in ER+ breast cancer [1]	ERα expression [2]	IC50 ([4]; ZR-75-1 proliferation) [nM]	Emax ([4]; inhibition of ZR-75-1 proliferation, read-out: Maximum inhibition rate/Imax %) [%]
–	–	–	–	–	–	COc1cccc(OC)c1S(=O)(=O)Nc1noc2cc(Cn3cccn3)cc(OC)c12 [CTx-648]	shows anti-tumor activity	can down-regulate ERα expression	–	–
0.4	–	–	–	–	–	COc1cc2c(cc1S(=O)(=O)Nc1noc3cc(Cn4cccn4)c4c(c13)OCCC4)CCC2 [Compound 6, N-(5-((1H-pyrazol-1-yl)methyl)-3,4-dihydro-2H-chromeno[8,7-d]isoxazol-9-yl)-6-methoxy-2,3-dihydro-1H-indene-5-sulfonamide]	–	–	0.6	95.4
4.6	0.496	43700	0.788	9.58	4310	Cc1ccc(S(=O)(=O)Nc2noc3cc(Cn4cccn4)c4c(c23)OCC4)c(OCC(F)(F)F)c1 [Compound 21, N-(4-((1H-pyrazol-1-yl)methyl)-2,3-dihydrobenzofuro[7,6-d]isoxazol-8-yl)-4-methyl-2-(2,2,2-trifluoroethoxy)benzenesulfonamide]	–	–	–	–
